Assay results taken from patent US6800635B2, “Crystalline form II of cabergoline” (Pharmacia Italia, S.p.A., priority 2000, dated 2004).

Test: Relative thermodynamic stability of cabergoline polymorphs (slurry of a mixture of forms I and II)
Assay type: physicochemical
Settings: range of temperature between −70 and +30° C.; compared with Form I
Experimental: It can be readily prepared starting from crude material by crystallization from several solvents at low temperatures. Alternatively it can be prepared by slurry of a mixture of forms I and II in a solvent at a temperature below 30° C. The importance of cabergoline form II rests primarily (but not exclusively) in its thermodynamic stability.
Crystalline Form II cabergoline may be also prepared by subjecting a mixture of crystal forms I and II of cabergoline to a slurry procedure at a temperature below 30° C. Preferably, the mixture is stirred at room temperature in organic aliphatic linear C4-7 alkanes or C4-C5 ethers such as n-hexane or diethyl ether. In the mixture, the Form I/Form II ratio is preferably from 10:1 to 1:10. The resultant crystals were collected as above described.
A mixture of 200 mg of form I and of an equal amount of form II was added to 50 ml of n-hexane at 25° C. The suspension was stirred for about 12 hours, then filtered using a glass filter under vacuum. The collected crystals were identified by analytical methods as pure form II. The analytical data were the same of example 1.
A mixture of 50 mg of form I and of 350 mg of form II was added to 5 ml of diethyl ether at −5° C. The suspension was stirred for about 12 hours, then filtered using a glass filter under vacuum. The collected crystals were identified by analytical methods as pure form II. […]

C=CCN1C[C@H](C(=O)N(CCCN(C)C)C(=O)NCC)C[C@@H]2c3cccc4[nH]cc(c34)C[C@H]21 [Form II, 1((6-allylergolin-8Beta-yl)-carbonyl)-1-(3-dimethylaminopropyl)-3-ethylurea]
thermodynamic stability of the polymorph: thermodynamically most stable polymorph
